In brackets after ≈: the same amount, converted by molar mass.
Each molecule was assayed on Salmonella typhimurium (assay: Antibacterial activity against Salmonella typhimurium MTCC 1251 assessed as zone of inhibition at 1 mg/disc after 24 hrs by disc diffusion method). Details: not given.
Format: functional, Salmonella enterica subsp. enterica serovar Typhimurium

Compared with `N#C[C@]1(C(=O)c2c[nH]c3ccccc23)C2CSCN2[C@]2(C(=O)Nc3ccccc32)[C@@H]1c1cn(-c2ccccc2)nc1-c1ccccc1` (stereo partly drawn), `CC(=O)N1CCN(c2ccc(OCC3COC(Cn4ccnc4)(c4ccc(Cl)cc4Cl)O3)cc2)CC1` (stereo not drawn) [KETOCONAZOLE] is higher in “inhibition zone (IZ)” value: 11 mm for the first, 18 mm for the second.

These molecules were tested on Klebsiella pneumoniae (assay: Antibacterial activity against Klebsiella pneumoniae MTCC 109 assessed as zone of inhibition at 1 mg/disc after 24 hrs by disc diffusion method). Details: not given.
Format: functional

Going from `N#C[C@]1(C(=O)c2c[nH]c3ccccc23)C2CSCN2[C@]2(C(=O)Nc3ccccc32)[C@@H]1c1cn(-c2ccccc2)nc1-c1ccccc1` (stereo partly drawn) to `CC(=O)N1CCN(c2ccc(OCC3COC(Cn4ccnc4)(c4ccc(Cl)cc4Cl)O3)cc2)CC1` (stereo not drawn) [KETOCONAZOLE], the “inhibition zone (IZ)” value rises from 10 mm to 20 mm.

The molecules below were run on Proteus vulgaris (assay: Antibacterial activity against Proteus vulgaris MTCC 1771 assessed as zone of inhibition at 1 mg/disc after 24 hrs by disc diffusion method). Details: not given.
Format: functional

Going from `N#C[C@]1(C(=O)c2c[nH]c3ccccc23)C2CSCN2[C@]2(C(=O)Nc3ccccc32)[C@@H]1c1cn(-c2ccccc2)nc1-c1ccccc1` (stereo partly drawn) to `CC(=O)N1CCN(c2ccc(OCC3COC(Cn4ccnc4)(c4ccc(Cl)cc4Cl)O3)cc2)CC1` (stereo not drawn) [KETOCONAZOLE], the “inhibition zone (IZ)” value rises from 10 mm to 30 mm.

Each molecule was assayed on Shigella flexneri (assay: Antibacterial activity against Shigella flexneri MTCC 1457 assessed as zone of inhibition at 1 mg/disc after 24 hrs by disc diffusion method). Details: not given.
Format: functional

Compared with `N#C[C@]1(C(=O)c2c[nH]c3ccccc23)C2CSCN2[C@]2(C(=O)Nc3ccccc32)[C@@H]1c1cn(-c2ccccc2)nc1-c1ccccc1` (stereo partly drawn), `CC(=O)N1CCN(c2ccc(OCC3COC(Cn4ccnc4)(c4ccc(Cl)cc4Cl)O3)cc2)CC1` (stereo not drawn) [KETOCONAZOLE] is higher in “inhibition zone (IZ)” value: 8 mm for the first, 30 mm for the second.

The molecules below were run on Micrococcus luteus (assay: Antibacterial activity against Micrococcus luteus MTCC 106 assessed as zone of inhibition at 1 mg/disc after 24 hrs by disc diffusion method). Details: not given.
Format: functional

Compared with `N#C[C@]1(C(=O)c2c[nH]c3ccccc23)C2CSCN2[C@]2(C(=O)Nc3ccccc32)[C@@H]1c1cn(-c2ccccc2)nc1-c1ccccc1` (stereo partly drawn), `CC(=O)N1CCN(c2ccc(OCC3COC(Cn4ccnc4)(c4ccc(Cl)cc4Cl)O3)cc2)CC1` (stereo not drawn) [KETOCONAZOLE] is higher in “inhibition zone (IZ)” value: 11 mm for the first, 26 mm for the second.

The molecules below were run on Klebsiella aerogenes (assay: Antibacterial activity against Enterobacter aerogenes MTCC 111 assessed as zone of inhibition at 1 mg/disc after 24 hrs by disc diffusion method). Details: not given.
Format: functional

First: N#C[C@]1(C(=O)c2c[nH]c3ccccc23)C2CSCN2[C@]2(C(=O)Nc3ccccc32)[C@@H]1c1cn(-c2ccccc2)nc1-c1ccccc1 (stereo partly drawn)
Second: CC(=O)N1CCN(c2ccc(OCC3COC(Cn4ccnc4)(c4ccc(Cl)cc4Cl)O3)cc2)CC1 (stereo not drawn) [KETOCONAZOLE]
The “inhibition zone (IZ)” value of the first is lower: 13 mm for the first, 22 mm for the second.

These molecules were tested on Staphylococcus epidermidis (assay: Antibacterial activity against Staphylococcus epidermidis MTCC 3615 assessed as zone of inhibition at 1 mg/disc after 24 hrs by disc diffusion method). Details: not given.
Format: functional

Compared with `N#C[C@]1(C(=O)c2c[nH]c3ccccc23)C2CSCN2[C@]2(C(=O)Nc3ccccc32)[C@@H]1c1cn(-c2ccccc2)nc1-c1ccccc1` (stereo partly drawn), `CC(=O)N1CCN(c2ccc(OCC3COC(Cn4ccnc4)(c4ccc(Cl)cc4Cl)O3)cc2)CC1` (stereo not drawn) [KETOCONAZOLE] is higher in “inhibition zone (IZ)” value: 13 mm for the first, 14 mm for the second.

These molecules were tested on Staphylococcus aureus (assay: Antibacterial activity against Staphylococcus aureus MTCC 96 assessed as zone of inhibition at 1 mg/disc after 24 hrs by disc diffusion method). Details: not given.
Format: functional

`N#C[C@]1(C(=O)c2c[nH]c3ccccc23)C2CSCN2[C@]2(C(=O)Nc3ccccc32)[C@@H]1c1cn(-c2ccccc2)nc1-c1ccccc1` (stereo partly drawn) and `CC(=O)N1CCN(c2ccc(OCC3COC(Cn4ccnc4)(c4ccc(Cl)cc4Cl)O3)cc2)CC1` (stereo not drawn) [KETOCONAZOLE] are the same in “inhibition zone (IZ)” value: 14 mm for the first, 14 mm for the second.

Each molecule was assayed on Staphylococcus aureus (assay: Antibacterial activity against methicillin-resistant Staphylococcus aureus assessed as zone of inhibition at 1 mg/disc after 24 hrs by disc diffusion method). Details: not given.
Format: functional

Compared with `N#C[C@]1(C(=O)c2c[nH]c3ccccc23)C2CSCN2[C@]2(C(=O)Nc3ccccc32)[C@@H]1c1cn(-c2ccccc2)nc1-c1ccccc1` (stereo partly drawn), `CC(=O)N1CCN(c2ccc(OCC3COC(Cn4ccnc4)(c4ccc(Cl)cc4Cl)O3)cc2)CC1` (stereo not drawn) [KETOCONAZOLE] is higher in “inhibition zone (IZ)” value: 8 mm for the first, 30 mm for the second.

The molecules below were run on Candida albicans (assay: Antifungal activity against Candida albicans MTCC 227 assessed as zone of inhibition at 1 mg/disc after 48 hrs by disc diffusion method). Details: not given.
Format: functional

Compared with `N#C[C@]1(C(=O)c2c[nH]c3ccccc23)C2CSCN2[C@]2(C(=O)Nc3ccccc32)[C@@H]1c1cn(-c2ccccc2)nc1-c1ccccc1` (stereo partly drawn), `CC(=O)N1CCN(c2ccc(OCC3COC(Cn4ccnc4)(c4ccc(Cl)cc4Cl)O3)cc2)CC1` (stereo not drawn) [KETOCONAZOLE] is higher in “inhibition zone (IZ)” value: 9 mm for the first, 28 mm for the second.

These molecules were tested on Malassezia pachydermatis (assay: Antifungal activity against Malassezia pachydermatis assessed as zone of inhibition at 1 mg/disc after 48 hrs by disc diffusion method). Details: not given.
Format: functional

Compared with `N#C[C@]1(C(=O)c2c[nH]c3ccccc23)C2CSCN2[C@]2(C(=O)Nc3ccccc32)[C@@H]1c1cn(-c2ccccc2)nc1-c1ccccc1` (stereo partly drawn), `CC(=O)N1CCN(c2ccc(OCC3COC(Cn4ccnc4)(c4ccc(Cl)cc4Cl)O3)cc2)CC1` (stereo not drawn) [KETOCONAZOLE] is higher in “inhibition zone (IZ)” value: 8 mm for the first, 26 mm for the second.

The molecules below were run on Salmonella typhimurium (assay: Antibacterial activity against Salmonella typhimurium MTCC 1251 assessed as inhibition of visual growth after 24 hrs). Details: Salmonella enterica, MTCC 1251, 24 h.
Format: functional, Salmonella enterica subsp. enterica serovar Typhimurium

Going from `N#C[C@]1(C(=O)c2c[nH]c3ccccc23)C2CSCN2[C@]2(C(=O)Nc3ccccc32)[C@@H]1c1cn(-c2ccccc2)nc1-c1ccccc1` (stereo partly drawn) to `CC(=O)N1CCN(c2ccc(OCC3COC(Cn4ccnc4)(c4ccc(Cl)cc4Cl)O3)cc2)CC1` (stereo not drawn) [KETOCONAZOLE], the MIC falls from 500 µg/mL (≈ 790 µM) to 30 µg/mL (≈ 56.5 µM) (17-fold).

These molecules were tested on Klebsiella pneumoniae (assay: Antibacterial activity against Klebsiella pneumoniae MTCC 109 assessed as inhibition of visual growth after 24 hrs). Details: MTCC 109, 24 h.
Format: functional

First: N#C[C@]1(C(=O)c2c[nH]c3ccccc23)C2CSCN2[C@]2(C(=O)Nc3ccccc32)[C@@H]1c1cn(-c2ccccc2)nc1-c1ccccc1 (stereo partly drawn)
Second: CC(=O)N1CCN(c2ccc(OCC3COC(Cn4ccnc4)(c4ccc(Cl)cc4Cl)O3)cc2)CC1 (stereo not drawn) [KETOCONAZOLE]
The MIC of the first is 80-fold higher: 500 µg/mL (≈ 790 µM) for the first, 6.25 µg/mL (≈ 11.8 µM) for the second.

The molecules below were run on Proteus vulgaris (assay: Antibacterial activity against Proteus vulgaris MTCC 1771 assessed as inhibition of visual growth after 24 hrs). Details: MTCC 1771, 24 h.
Format: functional

For `N#C[C@]1(C(=O)c2c[nH]c3ccccc23)C2CSCN2[C@]2(C(=O)Nc3ccccc32)[C@@H]1c1cn(-c2ccccc2)nc1-c1ccccc1` (stereo partly drawn), the MIC was 500 µg/mL (≈ 790 µM).

Each molecule was assayed on Shigella flexneri (assay: Antibacterial activity against Shigella flexneri MTCC 1457 assessed as inhibition of visual growth after 24 hrs). Details: MTCC 1457, 24 h.
Format: functional

Going from `N#C[C@]1(C(=O)c2c[nH]c3ccccc23)C2CSCN2[C@]2(C(=O)Nc3ccccc32)[C@@H]1c1cn(-c2ccccc2)nc1-c1ccccc1` (stereo partly drawn) to `CC(=O)N1CCN(c2ccc(OCC3COC(Cn4ccnc4)(c4ccc(Cl)cc4Cl)O3)cc2)CC1` (stereo not drawn) [KETOCONAZOLE], the MIC falls from 500 µg/mL (≈ 790 µM) to 6.25 µg/mL (≈ 11.8 µM) (80-fold).

The molecules below were run on Micrococcus luteus (assay: Antibacterial activity against Micrococcus luteus MTCC 106 assessed as inhibition of visual growth after 24 hrs). Details: MTCC 106, 24 h.
Format: functional

Going from `N#C[C@]1(C(=O)c2c[nH]c3ccccc23)C2CSCN2[C@]2(C(=O)Nc3ccccc32)[C@@H]1c1cn(-c2ccccc2)nc1-c1ccccc1` (stereo partly drawn) to `CC(=O)N1CCN(c2ccc(OCC3COC(Cn4ccnc4)(c4ccc(Cl)cc4Cl)O3)cc2)CC1` (stereo not drawn) [KETOCONAZOLE], the MIC falls from 500 µg/mL (≈ 790 µM) to 6.25 µg/mL (≈ 11.8 µM) (80-fold).

The molecules below were run on Klebsiella aerogenes (assay: Antibacterial activity against Enterobacter aerogenes MTCC 111 assessed as inhibition of visual growth after 24 hrs). Details: MTCC 111, 24 h.
Format: functional

Compared with `N#C[C@]1(C(=O)c2c[nH]c3ccccc23)C2CSCN2[C@]2(C(=O)Nc3ccccc32)[C@@H]1c1cn(-c2ccccc2)nc1-c1ccccc1` (stereo partly drawn), `CC(=O)N1CCN(c2ccc(OCC3COC(Cn4ccnc4)(c4ccc(Cl)cc4Cl)O3)cc2)CC1` (stereo not drawn) [KETOCONAZOLE] is 20-fold lower in MIC: 500 µg/mL (≈ 790 µM) for the first, 25 µg/mL (≈ 47 µM) for the second.

What follows are molecules tested on Staphylococcus epidermidis (assay: Antibacterial activity against Staphylococcus epidermidis MTCC 3615 assessed as inhibition of visual growth after 24 hrs). Details: MTCC 3615, 24 h.
Format: functional

Going from `N#C[C@]1(C(=O)c2c[nH]c3ccccc23)C2CSCN2[C@]2(C(=O)Nc3ccccc32)[C@@H]1c1cn(-c2ccccc2)nc1-c1ccccc1` (stereo partly drawn) to `CC(=O)N1CCN(c2ccc(OCC3COC(Cn4ccnc4)(c4ccc(Cl)cc4Cl)O3)cc2)CC1` (stereo not drawn) [KETOCONAZOLE], the MIC falls from 500 µg/mL (≈ 790 µM) to 6.25 µg/mL (≈ 11.8 µM) (80-fold).

Each molecule was assayed on Staphylococcus aureus (assay: Antibacterial activity against Staphylococcus aureus MTCC 96 assessed as inhibition of visual growth after 24 hrs). Details: MTCC 96, 24 h.
Format: functional

Compared with `N#C[C@]1(C(=O)c2c[nH]c3ccccc23)C2CSCN2[C@]2(C(=O)Nc3ccccc32)[C@@H]1c1cn(-c2ccccc2)nc1-c1ccccc1` (stereo partly drawn), `CC(=O)N1CCN(c2ccc(OCC3COC(Cn4ccnc4)(c4ccc(Cl)cc4Cl)O3)cc2)CC1` (stereo not drawn) [KETOCONAZOLE] is 80-fold lower in MIC: 500 µg/mL (≈ 790 µM) for the first, 6.25 µg/mL (≈ 11.8 µM) for the second.

The molecules below were run on Staphylococcus aureus (assay: Antibacterial activity against methicillin-resistant Staphylococcus aureus assessed as inhibition of visual growth after 24 hrs). Details: not given.
Format: functional

Going from `N#C[C@]1(C(=O)c2c[nH]c3ccccc23)C2CSCN2[C@]2(C(=O)Nc3ccccc32)[C@@H]1c1cn(-c2ccccc2)nc1-c1ccccc1` (stereo partly drawn) to `CC(=O)N1CCN(c2ccc(OCC3COC(Cn4ccnc4)(c4ccc(Cl)cc4Cl)O3)cc2)CC1` (stereo not drawn) [KETOCONAZOLE], the MIC falls from 500 µg/mL (≈ 790 µM) to 6.25 µg/mL (≈ 11.8 µM) (80-fold).

These molecules were tested on Candida albicans (assay: Antifungal activity against Candida albicans MTCC 227 assessed as inhibition of visual growth after 48 to 72 hrs). Details: not given.
Format: functional

First: N#C[C@]1(C(=O)c2c[nH]c3ccccc23)C2CSCN2[C@]2(C(=O)Nc3ccccc32)[C@@H]1c1cn(-c2ccccc2)nc1-c1ccccc1 (stereo partly drawn)
Second: CC(=O)N1CCN(c2ccc(OCC3COC(Cn4ccnc4)(c4ccc(Cl)cc4Cl)O3)cc2)CC1 (stereo not drawn) [KETOCONAZOLE]
The MIC of the first is 50-fold higher: 1250 µg/mL (≈ 1980 µM) for the first, 25 µg/mL (≈ 47 µM) for the second.

The molecules below were run on Malassezia pachydermatis (assay: Antifungal activity against Malassezia pachydermatis assessed as inhibition of visual growth after 48 to 72 hrs). Details: not given.
Format: functional

Compared with `N#C[C@]1(C(=O)c2c[nH]c3ccccc23)C2CSCN2[C@]2(C(=O)Nc3ccccc32)[C@@H]1c1cn(-c2ccccc2)nc1-c1ccccc1` (stereo partly drawn), `CC(=O)N1CCN(c2ccc(OCC3COC(Cn4ccnc4)(c4ccc(Cl)cc4Cl)O3)cc2)CC1` (stereo not drawn) [KETOCONAZOLE] is 10-fold lower in MIC: 250 µg/mL (≈ 395 µM) for the first, 25 µg/mL (≈ 47 µM) for the second.
